Test results reported in publication PMC8402619 (Viruses, 2021).
Like-named read-outs stand apart in the source and are kept apart here.

What was measured:
Format in all cases: in vitro ADME
[1] = Plasma protein binding by equilibrium dialysis, rabbit plasma; settings: pH 7.4
CYP1A2 [2] = biological target: T1, CYP1A2 (Homo sapiens, UniProt P05177); assay: Reversible CYP inhibition in pooled human liver microsomes
T1 sequence (P05177 1-516): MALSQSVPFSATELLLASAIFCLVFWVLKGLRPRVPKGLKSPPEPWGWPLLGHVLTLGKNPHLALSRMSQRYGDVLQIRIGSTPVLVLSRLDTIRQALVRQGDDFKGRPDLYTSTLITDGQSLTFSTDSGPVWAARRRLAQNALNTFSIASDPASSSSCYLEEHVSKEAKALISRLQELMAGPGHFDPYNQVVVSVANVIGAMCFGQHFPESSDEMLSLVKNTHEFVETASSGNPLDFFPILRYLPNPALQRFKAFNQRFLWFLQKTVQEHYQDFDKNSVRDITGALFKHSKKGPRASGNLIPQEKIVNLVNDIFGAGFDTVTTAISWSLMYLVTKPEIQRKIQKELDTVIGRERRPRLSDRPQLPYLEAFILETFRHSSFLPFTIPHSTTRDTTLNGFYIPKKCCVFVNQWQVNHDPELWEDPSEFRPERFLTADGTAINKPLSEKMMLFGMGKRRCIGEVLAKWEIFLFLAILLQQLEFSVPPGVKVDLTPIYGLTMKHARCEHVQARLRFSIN

UGT1A1 = biological target: T2, UGT1A1 (Homo sapiens, UniProt P22309)
T2 sequence (P22309 26-533): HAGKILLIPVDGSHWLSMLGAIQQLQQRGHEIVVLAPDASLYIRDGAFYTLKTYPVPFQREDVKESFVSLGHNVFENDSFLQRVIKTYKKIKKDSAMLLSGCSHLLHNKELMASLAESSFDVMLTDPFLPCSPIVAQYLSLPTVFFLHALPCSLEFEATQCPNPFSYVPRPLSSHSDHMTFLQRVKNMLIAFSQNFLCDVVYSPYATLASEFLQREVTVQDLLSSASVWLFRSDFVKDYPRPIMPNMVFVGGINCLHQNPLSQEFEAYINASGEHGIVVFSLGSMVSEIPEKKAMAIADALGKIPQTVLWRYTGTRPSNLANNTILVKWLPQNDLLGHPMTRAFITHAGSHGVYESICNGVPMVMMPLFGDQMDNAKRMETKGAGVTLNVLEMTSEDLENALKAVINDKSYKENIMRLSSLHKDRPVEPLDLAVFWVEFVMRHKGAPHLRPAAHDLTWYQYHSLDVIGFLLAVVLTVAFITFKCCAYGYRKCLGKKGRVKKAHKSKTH

CYP1A2 [3] = biological target: T1, CYP1A2; assay: Time-dependent CYP inhibition in pooled human liver microsomes
OAT1 = biological target: T3, OAT1 (Homo sapiens, UniProt Q4U2R8); assay: Islatravir uptake as substrate, MDCKII vs MDCKII-OAT1 cells
T3 construct: expressed in transfected cells; host or cells: MDCKII
T3 sequence (Q4U2R8 1-563): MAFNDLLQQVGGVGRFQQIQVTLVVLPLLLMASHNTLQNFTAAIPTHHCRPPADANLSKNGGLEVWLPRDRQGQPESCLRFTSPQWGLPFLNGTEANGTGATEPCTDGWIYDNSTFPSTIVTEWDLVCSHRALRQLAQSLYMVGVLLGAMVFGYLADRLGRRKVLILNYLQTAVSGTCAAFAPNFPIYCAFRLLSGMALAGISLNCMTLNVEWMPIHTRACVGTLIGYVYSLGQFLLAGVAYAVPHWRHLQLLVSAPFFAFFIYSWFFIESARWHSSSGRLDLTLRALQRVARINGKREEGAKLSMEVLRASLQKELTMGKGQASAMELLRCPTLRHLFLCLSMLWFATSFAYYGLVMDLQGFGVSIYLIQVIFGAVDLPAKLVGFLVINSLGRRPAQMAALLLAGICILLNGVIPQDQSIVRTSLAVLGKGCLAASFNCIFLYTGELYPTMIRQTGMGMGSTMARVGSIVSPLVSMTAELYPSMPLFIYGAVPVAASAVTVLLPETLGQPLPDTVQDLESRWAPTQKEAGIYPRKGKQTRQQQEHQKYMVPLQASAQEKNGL

MATE2K = biological target: T4, MATE2K (Homo sapiens, UniProt Q86VL8); assay: Islatravir uptake as substrate, MDCKII vs MDCKII-MATE2K cells
T4 construct: expressed in transfected cells; host or cells: MDCKII
T4 sequence (Q86VL8 1-566 isoform Q86VL8-3): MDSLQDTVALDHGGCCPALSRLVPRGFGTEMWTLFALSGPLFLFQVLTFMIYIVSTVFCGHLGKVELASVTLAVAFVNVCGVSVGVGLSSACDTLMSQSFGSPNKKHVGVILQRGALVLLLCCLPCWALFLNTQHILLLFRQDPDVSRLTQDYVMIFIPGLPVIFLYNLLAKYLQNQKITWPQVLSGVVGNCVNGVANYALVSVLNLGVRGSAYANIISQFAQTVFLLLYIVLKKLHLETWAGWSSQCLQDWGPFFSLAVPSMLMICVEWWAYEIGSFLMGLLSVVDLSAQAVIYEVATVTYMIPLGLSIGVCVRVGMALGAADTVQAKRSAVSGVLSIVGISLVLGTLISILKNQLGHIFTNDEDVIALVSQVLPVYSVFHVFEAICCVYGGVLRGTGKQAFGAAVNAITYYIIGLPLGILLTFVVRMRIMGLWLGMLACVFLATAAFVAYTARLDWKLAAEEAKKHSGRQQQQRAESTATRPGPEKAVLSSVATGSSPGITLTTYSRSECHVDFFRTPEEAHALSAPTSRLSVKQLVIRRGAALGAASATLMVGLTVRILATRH

BCRP = biological target: T5, BCRP (Homo sapiens, UniProt Q9UNQ0); assay: Bidirectional transport across MDCKII and MDCKII-BCRP cell monolayers; parameters: expressed in transfected cells; host or cells: MDCKII; settings: for efflux ratio at 3 h, 2 µM: human
T5 sequence (Q9UNQ0 1-655): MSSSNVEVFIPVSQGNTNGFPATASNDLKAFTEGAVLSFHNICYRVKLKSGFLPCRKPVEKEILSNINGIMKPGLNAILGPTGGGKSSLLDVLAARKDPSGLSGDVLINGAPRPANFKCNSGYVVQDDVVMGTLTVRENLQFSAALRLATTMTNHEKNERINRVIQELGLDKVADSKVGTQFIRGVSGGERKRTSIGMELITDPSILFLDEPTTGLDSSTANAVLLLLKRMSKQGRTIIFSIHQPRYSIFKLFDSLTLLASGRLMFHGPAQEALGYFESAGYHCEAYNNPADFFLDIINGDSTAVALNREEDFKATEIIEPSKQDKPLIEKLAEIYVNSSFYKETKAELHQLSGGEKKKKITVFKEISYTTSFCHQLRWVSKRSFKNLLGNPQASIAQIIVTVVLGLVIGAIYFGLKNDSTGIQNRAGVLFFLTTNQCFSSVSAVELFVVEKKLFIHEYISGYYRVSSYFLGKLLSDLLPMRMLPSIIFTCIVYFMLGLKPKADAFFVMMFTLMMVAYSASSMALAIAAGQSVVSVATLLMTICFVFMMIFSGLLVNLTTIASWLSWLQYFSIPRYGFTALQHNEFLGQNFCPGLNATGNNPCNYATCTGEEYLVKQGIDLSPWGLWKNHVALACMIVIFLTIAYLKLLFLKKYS

SMILES: C#C[C@]1(CO)O[C@@H](n2cnc3c(N)nc(F)nc32)C[C@@H]1O [Islatravir, 4′-Ethynyl-2-fluoro-2′-deoxyadenosine]
- fraction unbound at 24 h, 0.1 µM [1]: > 0.84
- DDI Potential (CYP1A2 [2]; CYP1A2 reversible inhibition, FDA, EMA, PMDA guidance): Low risk
- Maximum Unbound Plasma Concentration (Imax,u) to Ki,u Ratio (CYP1A2 [2]; CYP1A2 reversible, 60 mg, Cmax 1.01 µM, fu,p 0.96, Ki,u = IC50/2): <0.019 µM
- IC50 (CYP1A2 [2]; reversible, CYP1A2 phenacetin O-deethylation, read-out: Islatravir IC50): > 100 µM
- DDI Potential (UGT1A1; UGT1A1 reversible inhibition, FDA, EMA, PMDA guidance): Low risk ^g
- Intestinal Concentration (Igut) to Ki,u Ratio (UGT1A1; UGT1A1 reversible, Igut = 60 mg/250 mL = 818 µM): <16.4 µM
- IC50 (UGT1A1; reversible, UGT1A1 estradiol 3-glucuronidation, read-out: Islatravir IC50): > 100 µM
- time-dependent inhibition (CYP1A2 [3]; CYP1A2, pre-incubation of 10 and 50 µM for up to 30 min): no time-dependent inhibition
- DDI Potential (CYP1A2 [3]; CYP1A2 time dependent inhibition): Low risk ^h
- IC50 (CYP1A2 [3]; time dependent, CYP1A2, read-out: Islatravir IC50): > 50 µM
- Islatravir Uptake Transporter-Expressing Cells (OAT1; MDCKII-OAT1, 1 µM [3H]islatravir, 5 min, mean ± SD, n = 3): 0.72 ± 0.04 pmole/10^6 Cells
- Fold-Difference (OAT1; OAT1, uptake into transporter-expressing cells to control cells, 5 min): 1.04
- Islatravir Uptake Control Cells (OAT1; OAT1 row, MDCKII control cells, 1 µM [3H]islatravir, 5 min, mean ± SD, n = 3): 0.69 ± 0.07 pmole/10^6 Cells
- Conclusions (OAT1; OAT1 substrate assessment): Non-substrate
- Islatravir Uptake Control Cells (MATE2K; MATE2K row, MDCKII control cells, 2 µM [14C]islatravir, 20 min, mean ± SD, n = 3): 3.12 ± 0.17 pmole/10^6 Cells
- Conclusions (MATE2K; MATE2K substrate assessment): Non-substrate
- Fold-Difference (MATE2K; MATE2K, uptake into transporter-expressing cells to control cells, 20 min): 1.14
- Islatravir Uptake Transporter-Expressing Cells (MATE2K; MDCKII-MATE2K, 2 µM [14C]islatravir, 20 min, mean ± SD, n = 3): 3.56 ± 0.17 pmole/10^6 Cells
- BCRP substrate assessment (BCRP; bi-directional transport assay): substrate of BCRP
- Papp at 3 h, 2 µM (BCRP; dog, MDCK, MDCKII cells, read-out: apparent permeability coefficient (Papp)): 1.6 to 2.2 ×10⁻⁶ cm/s
- efflux ratio at 2 µM (BCRP; dog, MDCK, islatravir 2 µM, untransfected control cells, mean ± SEM, read-out: mean Papp(B to A)/Papp(A to B) efflux ratio): 0.8 ± 0.2
- efflux ratio at 3 h, 2 µM (BCRP; islatravir 2 µM, BCRP-transfected monolayers with Ko143 (5 µM), mean ± SEM, read-out: mean Papp(B to A)/Papp(A to B) efflux ratio): 0.9 ± 0.1
- efflux ratio at 3 h, 2 µM (BCRP; islatravir 2 µM, BCRP-transfected monolayers, mean ± SEM, read-out: mean Papp(B to A)/Papp(A to B) efflux ratio): 4.3 ± 1.1
